Patent US12617777B2, “GPR84 antagonists and uses thereof” (Liminal BioSciences Limited, priority 2021, dated 2026)

Molecular target: T1, human GPR84 receptor (Homo sapiens, UniProt Q9NQS5)
T1 construct: host or cells: HEK293, transient transfection
Test: Gαi biosensor BRET assay in HEK293 cells (antagonism of ZQ-16)
Format: cell-based
Conditions: for inhibition at 10 µM: HEK293, single concentration 10 μM (designated F); for IC50: HEK293 cells, antagonism of 200 nmol/L ZQ-16; for inhibition at 2 µM: HEK293, single concentration 2 μM (designated A); for inhibition at 25 µM: HEK293, single concentration 25 μM (designated I)
In short: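 Antagonist mode: test compound 5 min at 37° C, followed by ZQ-16 agonist (200 nmol/L, 5 min, room temperature), in HEK293 cells transfected with GPR84 plus Rluc8-tagged Gαi2, GFP10-Gγ2 and Gβ1. Readout as GFP10/Rluc8 emission ratio after 5 μmol/L coelenterazine 400A, net of Rluc8-only and vehicle signal.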

T1 sequence (Q9NQS5 whole entry): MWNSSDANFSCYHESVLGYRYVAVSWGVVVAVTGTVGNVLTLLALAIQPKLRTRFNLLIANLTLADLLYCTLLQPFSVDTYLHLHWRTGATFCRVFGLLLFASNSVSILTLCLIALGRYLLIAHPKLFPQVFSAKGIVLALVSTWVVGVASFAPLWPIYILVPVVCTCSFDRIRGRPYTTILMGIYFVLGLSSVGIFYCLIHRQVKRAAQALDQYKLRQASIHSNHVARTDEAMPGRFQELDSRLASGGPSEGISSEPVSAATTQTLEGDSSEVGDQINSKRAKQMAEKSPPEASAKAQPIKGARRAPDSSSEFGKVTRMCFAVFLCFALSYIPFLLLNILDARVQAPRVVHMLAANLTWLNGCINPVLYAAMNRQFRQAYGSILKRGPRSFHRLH

Structure (SMILES)	inhibition at 10 µM [%]	other results
Cc1cc(C#CCN)cnc1-c1cn(CC2CCCCO2)nn1 (centres unmarked) [Compound I-826, 3-(5-methyl-6-(1-((tetrahydro-2H-pyran-2-yl)methyl)-1H-1,2,3-triazol-4-yl)pyridin-3-yl)prop-2-yn-1-amine]	> 75	–
Cc1cc(C#CC2CC2)cnc1-c1cn(CC2CCCO2)nn1 (centres unmarked) [Compound I-204]	25 to 50	–
CN(C)c1cc(N2CC(CO)(CO)C2)ccc1-c1cn(CC2OCC(C)(C)CO2)nn1 [Compound I-667]	> 75	IC50: 300 to 1000 nM
Cc1cc(N2CCCC(O)C2)ccc1-c1cn(CC2CCCCO2)nn1 (centres unmarked) [Compound I-450]	25 to 50	–
COCC#Cc1ccc(-c2nnn(CC3CCCCO3)c2C)cc1 (centres unmarked) [Compound I-244]	25 to 50	–
Cc1cc(OCC(F)(F)F)cnc1-c1cn(CC2OCC(C)(C)CO2)nn1 [Compound I-638]	≤ 25	–
CC1(CO)CN(c2ccc(-c3cn(CC4OCC5(CCC5)O4)nn3)c(CC(F)(F)F)c2)C1 (centres unmarked) [Compound I-796]	–	IC50: ≤ 300 nM
Cc1cc(N2CC3(CCCN3)C2)ccc1-c1cn(CC2CCCCO2)nn1 (centres unmarked) [Compound I-147]	≤ 25	–
CC1(C)COC(Cn2cc(-c3ncc(C#CC4CC4)cc3CO)nn2)OC1 [Compound I-738]	–	inhibition at 2 µM: ≤ 25%
CN(C)c1cc(N2CC(C)(CO)C2)c(F)cc1-c1cn(CC2CC(C)(C)CO2)nn1 (centres unmarked) [Compound I-710]	–	inhibition at 2 µM: > 75%; IC50: ≤ 300 nM
Cc1cc(C#CCn2cc(-c3ccccc3)nn2)cnc1-c1cn(CC2CCCCO2)nn1 (centres unmarked) [Compound I-720]	> 75	IC50: 300 to 1000 nM
Cc1cc(N2CCN(Cc3cccnc3)CC2)ccc1-c1cn(CC2CCCCO2)nn1 (centres unmarked) [Compound I-578]	50 to 75	IC50: > 3000 nM
Cc1cc(C#CC2CC2)ccc1-n1cc(CC2CCOCC2)nn1 [Compound I-269]	≤ 25	–
Cc1cc(N2CCC[C@@H](N(C)Cc3ccccc3)C2)ccc1-c1cn(C[C@H]2CCCCO2)nn1 (relative stereo) [Compound I-238]	50 to 75	IC50: 1000 to 3000 nM
Cc1ccc(-c2ccc(-c3nnn(CC4CCCCO4)n3)cc2)cn1 (centres unmarked) [Compound I-2]	–	inhibition at 25 µM: ≤ 25%
CCc1cc(C#CCNc2ccccn2)cnc1-c1cn(C[C@H]2CCCCO2)nn1 [Compound I-658]	> 75	IC50: > 3000 nM
C(#CC1CC1)c1ccc(-c2cn(CC3CCc4ccccc4O3)nn2)cc1 (centres unmarked) [Compound I-41]	–	inhibition at 25 µM: ≤ 25%

Structure (SMILES)	inhibition at 10 µM [%]	other results
COC(=O)C1(C)CN(c2ccc(-c3cn(CC4CCCCO4)nn3)c(C)c2)C1 (centres unmarked) [Compound I-409]	25 to 50	–
CC1(C)CN(c2ccc(-c3cn(C[C@H]4CCCCO4)nn3)c(OC3CC3)c2)C1 [Compound I-749]	50 to 75	inhibition at 2 µM: > 75%; IC50: ≤ 300 nM
Cc1cc(C#CCn2cc(-c3ccc(N(C)C)cc3)nn2)cnc1-c1cn(CC2OCC(C)(C)CO2)nn1 [Compound I-668]	–	inhibition at 2 µM: > 75%; IC50: ≤ 300 nM
CC(=O)c1ccc(C)c(N(C)c2cn(CC3OCC(C)(C)CO3)nn2)c1 [Compound I-825]	–	inhibition at 2 µM: > 75%
Cc1cc(N2CC(N(C)C)C2)ccc1-c1cn(CC2CCCCO2)nn1 (centres unmarked) [Compound I-114]	≤ 25	–
CN(CC#Cc1cnc(-c2cn(CC3OCC(C)(C)CO3)nn2)c(OC2CC2)c1)C1CC1 [Compound I-858]	–	inhibition at 2 µM: > 75%
Cc1cc(C#CCNc2ccccc2)ccc1-c1cn(CC2CCCO2)nn1 (centres unmarked) [Compound I-62]	> 75	IC50: > 3000 nM
Cc1cc(C#CC2CC2)ccc1-c1cn(CC2CCCC(C)(C)O2)nn1 (centres unmarked) [Compound I-610]	–	inhibition at 2 µM: ≤ 25%
O=C(O)c1cnc(-c2cn(CC3OCC4(CC4)CO3)nn2)c(OC2CC2)c1 [Compound I-855]	–	inhibition at 2 µM: > 75%
Cc1cc(C#CC2CC2)ccc1-c1cn(CC2CCC(=O)O2)nn1 (centres unmarked) [Compound I-539]	≤ 25	–
Cc1cc(N2CCN(c3cccnc3)CC2)ccc1-c1cn(CC2CCCCO2)nn1 (centres unmarked) [Compound I-545]	≤ 25	–
CNCc1cc(C#CC2CC2)ccc1-c1cn(CC2CCCCO2)nn1 (centres unmarked) [Compound I-355]	50 to 75	–
OCc1cc(C#CC2CC2)ccc1-c1cn(CC2CCCCO2)nn1 (centres unmarked) [Compound I-216]	≤ 25	–
Cc1cc(N2CC3(COC3)C2)ccc1-c1cn(CC2CCCCO2)nn1 (centres unmarked) [Compound I-113]	25 to 50	–
Cc1c(C(C)c2cccc(C#CC3CC3)c2)nnn1CC1CCCCO1 (centres unmarked) [Compound I-624]	≤ 25	–
COC(C)(c1cccc(C#CC2CC2)c1)c1cn(CC2CCCCO2)nn1 (centres unmarked) [Compound I-631]	> 75	–
Cc1cc(C#CC2CC2)cnc1-c1cn(CC2OCC(C)(C)O2)nn1 (centres unmarked) [Compound I-601]	≤ 25	–
